We go through one substance from patent US7820629B2, “Galactose derivative, drug carrier and medicinal composition” (Nippon Shinyaku Co., Ltd., priority 2006, dated 2010).

For this assay, the system named is HuH-7 cells (human hepatoma cell line). The assay can be described thus: Evaluation of liver-targeting: uptake of tritium-labeled siRNA composition. The conditions noted are these: carriers of Examples 2 to 6 or Comparative Example 1 with tritium-labeled siRNA 100 nM, eight hours, by content (mg) of the Example 1 derivative. Format: cell-based. The method, then:
(1) Preparation of a Nucleic Acid Solution
A nucleic acid solution containing a tritium-labeled siRNA composed of an oligo RNA having a sequence of SEQ ID NO 1 and an oligo RNA having a sequence of SEQ ID NO 2 was prepared by introducing tritium-labeled [2,5′,8-3H]adenosine 5′-triphosphate ammonium salt (manufactured by Amersham Bioscience), using in-vitro Transcription T7 Kit (manufactured by Takara Bio). The siRNA concentration in the nucleic acid solution was 20 μM. The specific activity was 6.4×10^5 dpm/μg.
341.25 μL of a nucleic acid solution containing 20 μM of a tritium-unlabeled siRNA composed of an oligo RNA having a sequence of SEQ ID NO 1 and an oligo RNA having a sequence of SEQ ID NO 2 was added to 8.75 μL of the nucleic acid solution prepared in the above step, thereby preparing a nucleic acid solution having a specific activity of 1.6×10^4 dpm/μg.
(2) Preparation of a Composition […]
HuH-7 cells (human hepatoma cell line) were seeded on a 6-well plate at 2.5×10^5 cells/well, and were incubated for 18 hours at 37° C. under 5% CO2. […] 4 mL of a liquid scintillation cocktail (Emulsifier Scintillator Plus, manufactured by Perkin Elmer) was added to each of the vials and mixed well, and the radioactivity was counted with a liquid scintillation counter (manufactured by Perkin Elmer).

As to “N-[1-(D)-deoxylactito-1-yl]oleamide [Example 1]”, the “liver-targeting potency (radioactivity of cells, FIG. 1)” value is given as “increases depending on the content”.
